The values below are quoted from earlier work in US6821523B2, “Topical administration of pharmacologically active bases in the treatment of warts” (Dermatrends, Inc., priority 2002, dated 2004).

One data set has as its system cutaneous warts. The following applies: for efficacy in words: survey of clinical trials, local wart treatment.

As to `O=c1[nH]cc(F)c(=O)[nH]1` [5-fluorouracil], the efficacy in words entry in the data set on cutaneous warts is given as “weak at best”.

For `O=B[O-].[Na+]` [Sodium metaborate], the “pH of Aqueous Solution, alkalinity in words” value is reported as “Strongly alkaline”.

As for bleomycin, the efficacy in words entry in the data set on cutaneous warts is “weak at best”.

On to `O.O.O.O.O.O.O.O.O.O.O.O.O=P([O-])([O-])[O-].[Na+].[Na+].[Na+]` [Sodium phosphate, tribasic dodecahydrate], for which, under “1.0% (1%)”, the “pH of Aqueous Solution (concentration)” value is recorded as 11.9 (1.0%).

Regarding `O=P([O-])([O-])O.[K+].[K+]` [Potassium phosphate, dibasic], the “pH of Aqueous Solution, alkalinity in words” value is recorded as “Aqueous solution is slightly alkaline”.

`O=C(O)c1ccccc1O` [salicylic acid]: the cure rates entry with cutaneous warts (simple topical treatments, vs 48% for placebos) is given as “about 75%”.
